{"source": "patent US20230146455A1", "about": "“TREATMENT OF INFLAMMATORY DISEASES WITH PEPTIDES AND PHARMACEUTICAL COMPOSITIONS” (Yuyu Pharma, Inc., priority 2020, published 2023)", "key": {"GM-CSF": {"test_system": "GM-CSF", "experiment": "Example 9 Luminex, LPS hPBMCs: GM-CSF", "format": "cell-based, human", "description": "(§1) Treatment Human PBMCs were pretreated with YY-101, YDE-011 and YDE-043 or reference compound; Xiidra® at various concentration (ranging from 1 nM to 100 uM) for 2 h before stimulation. An equal volume of 0.5% DMSO was used as a vehicle control. Then, the cells were treated with LPS at 5 ug/ml. The supernatants from treated cells were harvested at 24 h and placed in a 96 well for Luminex cytokine & chemokine profiling using a Luminex 200 multiplex assay (Luminex; R&D system, USA).\n(§2) The main study arm with triplicate wells per group in a 24-well plate: • 1. Blank • 2. PBMC: 0.5% DMSO • 3. PBMC+LPS (5 ug/ml) • 4. PBMC+YY-101 100 uM • 5. PBMC+YY-101 10 uM • 6. PBMC+YY-101 1 uM • 7. PBMC+YY-101 0.1 uM • 8. PBMC+YY-101 0.01 uM • 9. PBMC+LPS (5 ug/ml)+Xiidra®100 uM • 10. PBMC+LPS (5 ug/ml)+Xiidra® 10 uM • 11. PBMC+LPS (5 ug/ml)+Xiidra® 1 uM • 12. PBMC+LPS (5 ug/ml)+Xiidra®0.1 uM • 13. PBMC+LPS (5 ug/ml)+Xiidra®0.01 uM • 14. PBMC+LPS (5 ug/ml)+Xiidra®0.001 uM • 15. PBMC+LPS (5 ug/ml)+YY-101 100 uM • 16. PBMC+LPS (5 ug/ml)+YY-101 10 uM • 17. PBMC+LPS (5 ug/ml)+YY-101 1 uM • 18. PBMC+LPS (5 ug/ml)+YY-101 0.1 uM • 19. PBMC+LPS (5 ug/ml)+YY-101 0.01 uM • 20. PBMC+LPS (5 ug/ml)+YY-101 0.001 uM • 21. PBMC+LPS (5 ug/ml)+YDE-011 100 uM • 22. PBMC+LPS (5 ug/ml)+YDE-011 10 uM • 23. PBMC+LPS (5 ug/ml)+YDE-011 1 uM • 24. PBMC+LPS (5 ug/ml)+YDE-011 0.1 uM • 25. PBMC+LPS (5 ug/ml)+YDE-011 0.01 uM • 26. PBMC+LPS (5 ug/ml)+YDE-011 0.001 uM • 27. PBMC+LPS (5 ug/ml)+YDE-043 100 uM • 28. PBMC+LPS (5 ug/ml)+YDE-043 10 uM • 29. PBMC+LPS (5 ug/ml)+YDE-043 1 uM • 30. PBMC+LPS (5 ug/ml)+YDE-043 0.1 uM • 31. PBMC+LPS (5 ug/ml)+YDE-043 0.01 uM • 32. PBMC+LPS (5 ug/ml)+YDE-043 0.001 uM\n(§3) Multiplex assay was used to measure 30 cytokines and chemokines. The 1:2, 1:10 and 1:200 diluted cell supernatant and serial dilution of the standard were dispensed into a 96 well plate at 50 ul/well. Then, the pre-mixed cocktail of antibody-coated magnetic beads was dispensed at 50 ul/well and incubated at room temperature for 2 h in a horizontal orbital microplate shaker at 800±500 rpm. The beads were washed using a magnetic device to prevent loss. The biotin-antibody was dispensed in 50 ul of each well and incubated at room temperature for 1 h in a shaker at 800±500 rpm. After washing, streptavidin-PE was added at 50 ul/well and incubated at room temperature for 30 min in a shaker under the same conditions. Finally, after washing, wash buffer (100 ul/well) was added to the plate and incubated in a shaker for 2 min. The Luminex™ 200 setting were set according to the manufacturer's protocol. The data was calculated with a standard five-parameter logistic nonlinear regression analysis of the data (xPonent software 4.2, USA). The levels of cytokine/chemokine are normalized to the live cell counts (1×10^5 cells/mL) and presented as concentrations per mL (pg/mL or ng/mL)."}, "VEGF-A": {"test_system": "VEGF-A", "experiment": "Example 9 Luminex, LPS hPBMCs: VEGF-A", "format": "cell-based, human", "details": "Bead VEGF-A; for Concentration: dilution 2.0", "description": "as §1, §2, §3"}, "[1]": {"details": "PBMC + LPS(5 ug/ml) + test article 0.001 uM, Mean"}, "[2]": {"details": "PBMC + LPS(5 ug/ml) + test article 0.001 uM, single replicates"}, "[3]": {"details": "PBMC + LPS(5 ug/ml) + test article 0.01 uM, Mean"}, "[4]": {"details": "PBMC + LPS(5 ug/ml) + test article 0.01 uM, single replicates"}, "[5]": {"details": "PBMC + LPS(5 ug/ml) + test article 0.1 uM, Mean"}, "[6]": {"details": "PBMC + LPS(5 ug/ml) + test article 0.1 uM, single replicates"}, "[7]": {"details": "PBMC + LPS(5 ug/ml) + test article 1 uM, Mean"}, "[8]": {"details": "PBMC + LPS(5 ug/ml) + test article 1 uM, single replicates"}, "[9]": {"details": "PBMC + LPS(5 ug/ml) + test article 10 uM, Mean"}, "[10]": {"details": "PBMC + LPS(5 ug/ml) + test article 10 uM, single replicates"}, "[11]": {"details": "PBMC + LPS(5 ug/ml) + test article 100 uM, Mean"}, "[12]": {"details": "PBMC + LPS(5 ug/ml) + test article 100 uM, single replicates"}}, "note": "Values joined by “and” are separate entries in the source; they are usually repeats but may differ in a detail not shown here. Equal entries are not always repeated. Where a SMILES comes first, the peptide text is derived from it. [ ]: non-standard residue; d: D form. Hyp = O=C(O)[C@@H]1C[C@@H](O)CN1", "data": [{"smiles": "CC(C)C[C@H](NC(=O)[C@H](CCC(N)=O)NC(=O)CNC(=O)[C@@H]1C[C@@H](O)CN1)C(=O)NCC(=O)O", "note": "[YDE-043] (H-[Hyp]GQLG-OH; N-terminus and C-terminus assumed)", "values": [{"measurement": "GM-CSF Concentration", "setting": "GM-CSF; [1]", "value": 96.8, "unit": "pg/mL"}, {"measurement": "GM-CSF conc/live cell", "setting": "GM-CSF; [1]", "value": 19.6, "unit": "pg/10^5"}, {"measurement": "GM-CSF Concentration", "setting": "GM-CSF; [2]", "value": "85.3 pg/mL and 103.8 pg/mL and 101.3 pg/mL"}, {"measurement": "GM-CSF conc/live cell", "setting": "GM-CSF; [2]", "value": "19.4 pg/10^5 and 17.3 pg/10^5 and 22.0 pg/10^5"}, {"measurement": "GM-CSF Concentration", "setting": "GM-CSF; [3]", "value": 92.9, "unit": "pg/mL"}, {"measurement": "GM-CSF conc/live cell", "setting": "GM-CSF; [3]", "value": 17.9, "unit": "pg/10^5"}, {"measurement": "GM-CSF Concentration", "setting": "GM-CSF; [4]", "value": "94.6 pg/mL and 86.1 pg/mL and 97.9 pg/mL"}, {"measurement": "GM-CSF conc/live cell", "setting": "GM-CSF; [4]", "value": "21.0 pg/10^5 and 13.1 pg/10^5 and 19.6 pg/10^5"}, {"measurement": "GM-CSF Concentration", "setting": "GM-CSF; [5]", "value": 92.5, "unit": "pg/mL"}, {"measurement": "GM-CSF conc/live cell", "setting": "GM-CSF; [5]", "value": 17.1, "unit": "pg/10^5"}, {"measurement": "GM-CSF Concentration", "setting": "GM-CSF; [6]", "value": "87.8 pg/mL and 91.2 pg/mL and 98.4 pg/mL"}, {"measurement": "GM-CSF conc/live cell", "setting": "GM-CSF; [6]", "value": "17.6 pg/10^5 (2×) and 16.3 pg/10^5"}, {"measurement": "GM-CSF Concentration", "setting": "GM-CSF; [7]", "value": 91.6, "unit": "pg/mL"}, {"measurement": "GM-CSF conc/live cell", "setting": "GM-CSF; [7]", "value": 17.4, "unit": "pg/10^5"}, {"measurement": "GM-CSF Concentration", "setting": "GM-CSF; [8]", "value": "89.5 pg/mL and 92.1 pg/mL and 93.3 pg/mL"}, {"measurement": "GM-CSF conc/live cell", "setting": "GM-CSF; [8]", "value": "15.4 pg/10^5 and 19.2 pg/10^5 and 17.6 pg/10^5"}, {"measurement": "GM-CSF Concentration", "setting": "GM-CSF; [9]", "value": 101.0, "unit": "pg/mL"}, {"measurement": "GM-CSF conc/live cell", "setting": "GM-CSF; [9]", "value": 18.7, "unit": "pg/10^5"}, {"measurement": "GM-CSF Concentration", "setting": "GM-CSF; [10]", "value": "102.1 pg/mL and 96.3 pg/mL and 104.6 pg/mL"}, {"measurement": "GM-CSF conc/live cell", "setting": "GM-CSF; [10]", "value": "19.6 pg/10^5 and 17.8 pg/10^5 and 18.7 pg/10^5"}, {"measurement": "GM-CSF Concentration", "setting": "GM-CSF; [11]", "value": 137.2, "unit": "pg/mL"}, {"measurement": "GM-CSF conc/live cell", "setting": "GM-CSF; [11]", "value": 21.8, "unit": "pg/10^5"}, {"measurement": "GM-CSF Concentration", "setting": "GM-CSF; [12]", "value": "140.1 pg/mL and 134.4 pg/mL"}, {"measurement": "GM-CSF conc/live cell", "setting": "GM-CSF; [12]", "value": "22.6 pg/10^5 and 21.0 pg/10^5"}, {"measurement": "conc/live cell", "setting": "VEGF-A; [1]", "value": 0.7, "unit": "pg/10^5"}, {"measurement": "Concentration", "setting": "VEGF-A; [1]", "value": 3.6, "unit": "pg/mL"}, {"measurement": "Concentration", "setting": "VEGF-A; [2]", "value": 3.6, "unit": "pg/mL"}, {"measurement": "conc/live cell", "setting": "VEGF-A; [2]", "value": "0.8 pg/10^5 (2×) and 0.6 pg/10^5"}, {"measurement": "conc/live cell", "setting": "VEGF-A; [3]", "value": 0.1, "unit": "pg/10^5"}, {"measurement": "Concentration", "setting": "VEGF-A; [3]", "value": 0.6, "unit": "pg/mL"}, {"measurement": "Concentration", "setting": "VEGF-A; [4]", "value": 0.6, "unit": "pg/mL"}, {"measurement": "conc/live cell", "setting": "VEGF-A; [4]", "value": 0.1, "unit": "pg/10^5"}, {"measurement": "conc/live cell", "setting": "VEGF-A; [5]", "value": 0.1, "unit": "pg/10^5"}, {"measurement": "Concentration", "setting": "VEGF-A; [5]", "value": 0.6, "unit": "pg/mL"}, {"measurement": "Concentration", "setting": "VEGF-A; [6]", "value": 0.6, "unit": "pg/mL"}, {"measurement": "conc/live cell", "setting": "VEGF-A; [6]", "value": 0.1, "unit": "pg/10^5"}, {"measurement": "conc/live cell", "setting": "VEGF-A; [7]", "value": 0.8, "unit": "pg/10^5"}, {"measurement": "Concentration", "setting": "VEGF-A; [7]", "value": 4.4, "unit": "pg/mL"}, {"measurement": "Concentration", "setting": "VEGF-A; [8]", "value": "6.1 pg/ml and 3.6 pg/ml (2×)"}, {"measurement": "conc/live cell", "setting": "VEGF-A; [8]", "value": "1.1 pg/10^5 and 0.7 pg/10^5 (2×)"}, {"measurement": "conc/live cell", "setting": "VEGF-A; [9]", "value": 0.7, "unit": "pg/10^5"}, {"measurement": "Concentration", "setting": "VEGF-A; [9]", "value": 5.5, "unit": "pg/mL"}, {"measurement": "Concentration", "setting": "VEGF-A; [10]", "value": "6.1 pg/mL and 4.9 pg/mL"}, {"measurement": "conc/live cell", "setting": "VEGF-A; [10]", "value": "0.0 pg/10^5 and 1.1 pg/10^5 and 0.9 pg/10^5"}, {"measurement": "conc/live cell", "setting": "VEGF-A; [11]", "value": 0.4, "unit": "pg/10^5"}, {"measurement": "Concentration", "setting": "VEGF-A; [11]", "value": 4.9, "unit": "pg/mL"}, {"measurement": "Concentration", "setting": "VEGF-A; [12]", "value": 4.9, "unit": "pg/mL"}, {"measurement": "conc/live cell", "setting": "VEGF-A; [12]", "value": "0.8 pg/10^5 and 0.0 pg/10^5"}]}]}
